34 compounds from US7211572B2 (Japan Tobacco Inc., priority 2003, dated 2007) can be followed below.

What is called IC50 is the point on the concentration scale where inhibition reaches its midpoint.

The structures appear in SMILES notation. Counter-ions that a name gives are not always drawn. A value given as a limit tells only on which side of the number the result lay.

The target of the test is T1, HIV integrase (Human immunodeficiency virus type 1 group M subtype B, UniProt P12497, F1332H).
T1 construct: HIV integrase full length gene; made in house; host or cells: Escherichia coli BL21(DE3), plasmid pET21a-INH
Briefly: Determination of enzyme (HIV integrase) inhibitory activity. In kind it is biochemical. To be noted: recombinant HIV integrase (F185H), strand transfer ELISA, absorbance at 450 nm. In a few lines:
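Full-length integrase with F185H, expressed in E. coli and purified, was reacted for 60 min at 37 °C with compound and biotinylated donor DNA bound to streptavidin plates. Target DNA was added for 10 min, then anti-digoxigenin-peroxidase detection at A450; IC50 from % inhibition versus enzyme-free blank.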
A general note: ELISA stands for enzyme-linked immunosorbent assay.

Regarding `O=c1c(-c2nnn[nH]2)cn2ccn(Cc3cccc(Cl)c3)c(=O)c2c1O` [Example 188, 2-(3-chlorobenzyl)-9-hydroxy-7-(1H-tetrazol-5-yl)-2H-pyrido[1,2-a]pyrazine-1,8-dione hydrochloride], the IC50 was in the range of 10 to 100 nM. As for `CNC(=O)Cc1cn2ccn(Cc3cccc(Cl)c3)c(=O)c2c(O)c1=O` [Example 189, 2-[2-(3-chlorobenzyl)-9-hydroxy-1,8-dioxo-1,8-dihydro-2H-pyrido[1,2-a]pyrazin-7-yl]-N-methylacetamide], the half-maximal inhibitory concentration (IC50) lay within 10 to 100 nM. Then `CN(C)C(=O)Cc1cn2ccn(Cc3cccc(Cl)c3)c(=O)c2c(O)c1=O` [Example 190, 2-[2-(3-chlorobenzyl)-9-hydroxy-1,8-dioxo-1,8-dihydro-2H-pyrido[1,2-a]pyrazin-7-yl]-N,N-dimethylacetamide], with 10 to 100 nM. With `O=C(O)Cc1cn2ccn(Cc3cccc(Cl)c3)c(=O)c2c(O)c1=O` [Example 191, [2-(3-chlorobenzyl)-9-hydroxy-1,8-dioxo-1,8-dihydro-2H-pyrido[1,2-a]pyrazin-7-yl]acetic acid] the figure was 10 to 100 nM; with `CC(O)CNC(=O)c1cn2ccn(Cc3cccc(Cl)c3)c(=O)c2c(O)c1=O` (stereo not shown) [Example 192, N-(2-hydroxypropyl)-2-(3-chlorobenzyl)-9-hydroxy-1,8-dioxo-1,8-dihydro-2H-pyrido[1,2-a]pyrazine-7-carboxamide hydrochloride], 10 to 100 nM.

For the compound `O=C(O)CNC(=O)c1cn2ccn(Cc3cccc(Cl)c3)c(=O)c2c(O)c1=O` [Example 193, {[2-(3-chlorobenzyl)-9-hydroxy-1,8-dioxo-1,8-dihydro-2H-pyrido[1,2-a]pyrazine-7-carbonyl]amino}acetic acid], the IC50 lay in the range of 10 to 100 nM. With `CN(C)C(=O)CNC(=O)c1cn2ccn(Cc3cccc(Cl)c3)c(=O)c2c(O)c1=O` [Example 194, N-dimethylcarbamoylmethyl-2-(3-chlorobenzyl)-9-hydroxy-1,8-dioxo-1,8-dihydro-2H-pyrido[1,2-a]pyrazine-7-carboxamide] the figure was 10 to 100 nM; with `CNC(=O)CNC(=O)c1cn2ccn(Cc3cccc(Cl)c3)c(=O)c2c(O)c1=O` [Example 195, N-methylcarbamoylmethyl-2-(3-chlorobenzyl)-9-hydroxy-1,8-dioxo-1,8-dihydro-2H-pyrido[1,2-a]pyrazine-7-carboxamide], 10 to 100 nM. With `O=C(Nc1ccccc1)c1cn2ccn(Cc3cccc(Cl)c3)c(=O)c2c(O)c1=O` [Example 196, N-phenyl-2-(3-chlorobenzyl)-9-hydroxy-1,8-dioxo-1,8-dihydro-2H-pyrido[1,2-a]pyrazine-7-carboxamide hydrochloride] the figure was 10 to 100 nM.

For the compound `O=c1c(-c2ncco2)cn2ccn(Cc3cccc(Cl)c3)c(=O)c2c1O` [Example 197, 2-(3-chlorobenzyl)-9-hydroxy-7-(oxazol-2-yl)-2H-pyrido[1,2-a]pyrazine-1,8-dione hydrochloride], the IC50 fell in the range of 10 to 100 nM.

For the compound `O=C(c1cn2ccn(Cc3cccc(Cl)c3)c(=O)c2c(O)c1=O)N1CCC(O)C1` (stereo not shown) [Example 198, 2-(3-chlorobenzyl)-9-hydroxy-7-(3-hydroxypyrrolidine-1-carbonyl)-2H-pyrido[1,2-a]pyrazine-1,8-dione hydrochloride], the IC50 lay in the range of 10 to 100 nM. Then `CC(=O)CNC(=O)c1cn2ccn(Cc3cccc(Cl)c3)c(=O)c2c(O)c1=O` [Example 199, N-(2-oxopropyl)-2-(3-chlorobenzyl)-9-hydroxy-1,8-dioxo-1,8-dihydro-2H-pyrido[1,2-a]pyrazine-7-carboxamide], with 10 to 100 nM.

For `O=C(Cn1ccn2ccc(=O)c(O)c2c1=O)Nc1ccccc1` [Example 200, 2-(9-hydroxy-1,8-dioxo-1,8-dihydro-pyrido[1,2-a]pyrazin-2-yl)-N-phenylacetamide hydrochloride], the IC50 was 100 to 1000 nM.

`O=C1CCN(C(=O)c2cn3ccn(Cc4cccc(Cl)c4)c(=O)c3c(O)c2=O)C1` [Example 201, 2-(3-chlorobenzyl)-9-hydroxy-7-(3-oxopyrrolidine-1-carbonyl)-2H-pyrido[1,2-a]pyrazine-1,8-dione]: the IC50 was 10 to 100 nM. As for `COc1ccc(Cl)cc1Cn1ccn2ccc(=O)c(O)c2c1=O` [Example 202, 2-(5-chloro-2-methoxybenzyl)-9-hydroxy-2H-pyrido[1,2-a]pyrazine-1,8-dione hydrochloride], the half-inhibitory concentration (IC50) fell in the range of 10 to 100 nM. Then `CS(=O)(=O)Nc1cn2ccn(Cc3cccc(Cl)c3)c(=O)c2c(O)c1=O` [Example 203, N-[2-(3-chlorobenzyl)-9-hydroxy-1,8-dioxo-1,8-dihydro-2H-pyrido[1,2-a]pyrazin-7-yl]methanesulfonamide], with below 10 nM; and `CC(=O)c1cn2ccn(Cc3cccc(Cl)c3)c(=O)c2c(O)c1=O` [Example 204, 7-acetyl-2-(3-chlorobenzyl)-9-hydroxy-2H-pyrido[1,2-a]pyrazine-1,8-dione hydrochloride], with below 10 nM. As for `CCC(=O)c1cn2ccn(Cc3cccc(Cl)c3)c(=O)c2c(O)c1=O` [Example 205, 2-(3-chlorobenzyl)-9-hydroxy-7-propionyl-2H-pyrido[1,2-a]pyrazine-1,8-dione hydrochloride], the concentration for half-maximal inhibition (IC50) was below 10 nM. `O=c1ccn2ccn(C/C=C/c3ccccc3)c(=O)c2c1O` [Example 206, 9-hydroxy-2-(3-phenylallyl)-2H-pyrido[1,2-a]pyrazine-1,8-dione]: the IC50 lay in the range of 10 to 100 nM. Consider `CNC(=O)c1cn2ccn(Cc3ccc(F)c(Cl)c3)c(=O)c2c(O)c1=O` [Example 207, N-methyl-2-(3-chloro-4-fluorobenzyl)-9-hydroxy-1,8-dioxo-1,8-dihydro-2H-pyrido[1,2-a]pyrazine-7-carboxamide], for which the IC50 is below 10 nM. For `CN(C)C(=O)c1cn2ccn(Cc3ccc(F)c(Cl)c3)c(=O)c2c(O)c1=O` [Example 208, N,N-dimethyl-2-(3-chloro-4-fluorobenzyl)-9-hydroxy-1,8-dioxo-1,8-dihydro-2H-pyrido[1,2-a]pyrazine-7-carboxamide], the IC50 was below 10 nM.

Consider `CS(=O)(=O)CCNC(=O)c1cn2ccn(Cc3cccc(Cl)c3)c(=O)c2c(O)c1=O` [Example 209, N-(2-methanesulfonylethyl)-2-(3-chlorobenzyl)-9-hydroxy-1,8-dioxo-1,8-dihydro-2H-pyrido[1,2-a]pyrazine-7-carboxamide], for which the IC50 lay within 10 to 100 nM. With `O=C(NCCN1CCCC1=O)c1cn2ccn(Cc3cccc(Cl)c3)c(=O)c2c(O)c1=O` [Example 210, N-[2-(2-oxopyrrolidin-1-yl)ethyl)-2-(3-chlorobenzyl)-9-hydroxy-1,8-dioxo-1,8-dihydro-2H-pyrido[1,2-a]pyrazine-7-carboxamide] the figure was 10 to 100 nM; with `CN(c1cn2ccn(Cc3cccc(Cl)c3)c(=O)c2c(O)c1=O)S(C)(=O)=O` [Example 211, N-[2-(3-chlorobenzyl)-9-hydroxy-1,8-dioxo-1,8-dihydro-2H-pyrido[1,2-a]pyrazin-7-yl]-N-methylmethanesulfonamide], below 10 nM.

Consider `COc1cc(Cl)cc(Cn2ccn3ccc(=O)c(O)c3c2=O)c1` [Example 212, 2-(3-chloro-5-methoxybenzyl)-9-hydroxy-2H-pyrido[1,2-a]pyrazine-1,8-dione hydrochloride], for which the IC50 lay in the range of 10 to 100 nM. With `O=C(NCc1ccncc1)c1cn2ccn(Cc3cccc(Cl)c3)c(=O)c2c(O)c1=O` [Example 213, N-(pyridin-4-ylmethyl)-2-(3-chlorobenzyl)-9-hydroxy-1,8-dioxo-1,8-dihydro-2H-pyrido[1,2-a]pyrazine-7-carboxamide] the figure was 10 to 100 nM; with `O=C(NCc1ccc(F)cc1)c1cn2ccn(Cc3cccc(Cl)c3)c(=O)c2c(O)c1=O` [Example 214, N-(4-fluorobenzyl)-2-(3-chlorobenzyl)-9-hydroxy-1,8-dioxo-1,8-dihydro-2H-pyrido[1,2-a]pyrazine-7-carboxamide], below 10 nM. With `O=C1c2c(O)c(=O)c(-c3nccs3)cn2CCN1Cc1cccc(Cl)c1` [Example 215, 2-(3-chlorobenzyl)-9-hydroxy-7-(thiazol-2-yl)-3,4-dihydro-2H-pyrido[1,2-a]pyrazine-1,8-dione] the figure was below 10 nM; with `O=c1c(CO)cn2ccn(Cc3cccc(Cl)c3)c(=O)c2c1O` [Example 216, 2-(3-chlorobenzyl)-9-hydroxy-7-hydroxymethyl-2H-pyrido[1,2-a]pyrazine-1,8-dione hydrochloride], 10 to 100 nM; with `CC(C)(C)C(=O)c1cn2ccn(Cc3ccc(F)c(Cl)c3)c(=O)c2c(O)c1=O` [Example 217, 2-(3-chloro-4-fluorobenzyl)-7-(2,2-dimethylpropionyl)-9-hydroxy-2H-pyrido[1,2-a]pyrazine-1,8-dione hydrochloride], below 10 nM. Then `O=c1c(-c2cncs2)cn2ccn(Cc3cccc(Cl)c3)c(=O)c2c1O` [Example 218, 2-(3-chlorobenzyl)-9-hydroxy-7-(thiazol-5-yl)-2H-pyrido[1,2-a]pyrazine-1,8-dione hydrochloride], with below 10 nM. Consider `CNC(=O)c1cn2c(c(O)c1=O)C(=O)N(Cc1cccc(Cl)c1)CC2` [Example 219, 2-(3-chlorobenzyl)-9-hydroxy-1,8-dioxo-1,3,4,8-tetrahydro-2H-pyrido[1,2-a]pyrazine-7-carboxylic acid methylamide], for which the IC50 was 10 to 100 nM. Then `CN(C)C(=O)c1cn2c(c(O)c1=O)C(=O)N(Cc1cccc(Cl)c1)CC2` [Example 220, N,N-dimethyl-2-(3-chlorobenzyl)-9-hydroxy-1,8-dioxo-1,3,4,8-tetrahydro-2H-pyrido[1,2-a]pyrazine-7-carboxamide], with 10 to 100 nM; and `CC(C)(C)C(=O)c1cn2c(c(O)c1=O)C(=O)N(Cc1ccc(F)c(Cl)c1)CC2` [Example 221, 2-(3-chloro-4-fluorobenzyl)-7-(2,2-dimethylpropionyl)-9-hydroxy-3,4-dihydro-2H-pyrido[1,2-a]pyrazine-1,8-dione hydrochloride], with below 10 nM.
